# Experimental data taken from PubChem BioAssay (NCI).
#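 Where inhibition never reached the appropriate level, the endpoint shown equals the highest concentration tested. Otherwise, values were interpolated linearly from a five-concentration, 48-hour dose response in 96-well plates. The concentration for full growth arrest is given as TGI.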
# Test system: COLO 205 colon
# Assay: NCI anticancer screen, dose series, 48 h
row,Compound,TGI [µM]
1,O=C(N(O)c1ccccc1Cl)C(O)(c1ccccc1)c1ccccc1,> 100
2,CCOC(=O)c1nc2cc(F)c(N3CCOCC3)cc2[nH]c1=O,> 100
3,CCCC(=O)N1CCN(c2ccc3c(c2)OC(C)O3)CC1 (centres undefined),> 100
4,COC(=O)C1=C(O)c2ccc(Cl)cc2S(=O)(=O)N1C,> 100
5,CCOC(=O)[C@H](C)OC(=O)[C@@](C)(NC(=O)c1ccccc1C(=O)OC)[C@@H]1NC=C(C(=O)OC)CS1,> 100
6,CC1(C)OC2C(O)C(CO)OC2(C(F)F)O1 (centres undefined),> 100
7,COCOC1C=CCCCC2=CC(C)=C(CC1)O2 (centres undefined),> 100
8,Cn1c2ccccc2c(=O)c2cccc(C(=O)NC(CS)C(=O)O)c21 (centres undefined),> 100
9,COc1ccc(-c2cc3ccccc3oc2=O)cc1OC,> 100
10,CCC(=O)O[C@H]1CC[C@H]2[C@@H]3CCC4=C/C(=N/OC(=O)c5cccc6cc7ccccc7nc56)CC[C@]4(C)[C@H]3CC[C@]12C,> 100
11,CC(=O)OCC1OC(n2c(C)cc(C)c(C#N)c2=S)C(OC(C)=O)C(OC(C)=O)C1OC(C)=O (centres undefined),> 100
12,COC(=O)NC(C(F)(F)F)(C(F)(F)F)P1(=O)OCCCO1,69.9
13,CNCCCn1c2ccccc2c2c3c(c(-c4ccsc4)cc21)C(=O)NC3=O,2.71
14,Cc1cc(/N=C/c2ccc(F)cc2)n(-c2ccccc2)n1,> 100
15,CCOC(=O)/C=C(/C(=O)OCC)n1cnc2c(=O)[nH]c(NC(C)=O)nc21,> 100
16,Nc1ccn([C@H]2CO[C@@H](CO)[C@@H]2O)c(=O)n1,> 100
17,O=C1NC(N/N=C\C(O)C(O)C(O)C(O)CO)=N/C1=C/c1ccc(Cl)cc1 (centres undefined),> 100
18,CCOC(=O)Cc1ccc(Nc2nc3ccccc3nc2C(=O)OCC)cc1,> 100
19,CC(C)[Si]1(C(C)C)OCC2OC3(CO)C(Oc4nc(=O)ccn43)C2O[Si](C(C)C)(C(C)C)O1 (centres undefined),22
20,CC(C)(C)[Si](C)(C)Oc1ccc(C2CNC(=O)C23CCC(=O)N3Cc2ccccc2)cc1 (centres undefined),25.3

# Test system: SR leukemia
# Assay: NCI anticancer screen, dose series, 48 h
row,Compound,TGI [µM]
1,O=C(N(O)c1ccccc1Cl)C(O)(c1ccccc1)c1ccccc1,49.9
2,CCOC(=O)c1nc2cc(F)c(N3CCOCC3)cc2[nH]c1=O,> 100
3,CCCC(=O)N1CCN(c2ccc3c(c2)OC(C)O3)CC1 (centres undefined),> 100
4,COC(=O)C1=C(O)c2ccc(Cl)cc2S(=O)(=O)N1C,> 100
5,CCOC(=O)[C@H](C)OC(=O)[C@@](C)(NC(=O)c1ccccc1C(=O)OC)[C@@H]1NC=C(C(=O)OC)CS1,46.5
6,CC1(C)OC2C(O)C(CO)OC2(C(F)F)O1 (centres undefined),> 100
7,COCOC1C=CCCCC2=CC(C)=C(CC1)O2 (centres undefined),> 100
8,Cn1c2ccccc2c(=O)c2cccc(C(=O)NC(CS)C(=O)O)c21 (centres undefined),> 100
9,COc1ccc(-c2cc3ccccc3oc2=O)cc1OC,> 100
10,CCC(=O)O[C@H]1CC[C@H]2[C@@H]3CCC4=C/C(=N/OC(=O)c5cccc6cc7ccccc7nc56)CC[C@]4(C)[C@H]3CC[C@]12C,> 100
11,CC(=O)OCC1OC(n2c(C)cc(C)c(C#N)c2=S)C(OC(C)=O)C(OC(C)=O)C1OC(C)=O (centres undefined),> 100
12,COC(=O)NC(C(F)(F)F)(C(F)(F)F)P1(=O)OCCCO1,69.5
13,CNCCCn1c2ccccc2c2c3c(c(-c4ccsc4)cc21)C(=O)NC3=O,0.349
14,Cc1cc(/N=C/c2ccc(F)cc2)n(-c2ccccc2)n1,> 100
15,CCOC(=O)/C=C(/C(=O)OCC)n1cnc2c(=O)[nH]c(NC(C)=O)nc21,> 100
16,Nc1ccn([C@H]2CO[C@@H](CO)[C@@H]2O)c(=O)n1,> 100
17,O=C1NC(N/N=C\C(O)C(O)C(O)C(O)CO)=N/C1=C/c1ccc(Cl)cc1 (centres undefined),> 100
18,CCOC(=O)Cc1ccc(Nc2nc3ccccc3nc2C(=O)OCC)cc1,> 100
19,CC(C)[Si]1(C(C)C)OCC2OC3(CO)C(Oc4nc(=O)ccn43)C2O[Si](C(C)C)(C(C)C)O1 (centres undefined),47.1
20,CC(C)(C)[Si](C)(C)Oc1ccc(C2CNC(=O)C23CCC(=O)N3Cc2ccccc2)cc1 (centres undefined),> 100

# Test system: SNB-19 CNS
# Assay: NCI anticancer screen, dose series, 48 h
row,Compound,TGI [µM]
1,O=C(N(O)c1ccccc1Cl)C(O)(c1ccccc1)c1ccccc1,> 100
2,CCOC(=O)c1nc2cc(F)c(N3CCOCC3)cc2[nH]c1=O,> 100
3,CCCC(=O)N1CCN(c2ccc3c(c2)OC(C)O3)CC1 (centres undefined),> 100
4,COC(=O)C1=C(O)c2ccc(Cl)cc2S(=O)(=O)N1C,> 100
5,CCOC(=O)[C@H](C)OC(=O)[C@@](C)(NC(=O)c1ccccc1C(=O)OC)[C@@H]1NC=C(C(=O)OC)CS1,> 100
6,CC1(C)OC2C(O)C(CO)OC2(C(F)F)O1 (centres undefined),> 100
7,COCOC1C=CCCCC2=CC(C)=C(CC1)O2 (centres undefined),> 100
8,Cn1c2ccccc2c(=O)c2cccc(C(=O)NC(CS)C(=O)O)c21 (centres undefined),> 100
9,COc1ccc(-c2cc3ccccc3oc2=O)cc1OC,> 100
10,CCC(=O)O[C@H]1CC[C@H]2[C@@H]3CCC4=C/C(=N/OC(=O)c5cccc6cc7ccccc7nc56)CC[C@]4(C)[C@H]3CC[C@]12C,> 100
11,CC(=O)OCC1OC(n2c(C)cc(C)c(C#N)c2=S)C(OC(C)=O)C(OC(C)=O)C1OC(C)=O (centres undefined),> 100
12,COC(=O)NC(C(F)(F)F)(C(F)(F)F)P1(=O)OCCCO1,78.7
13,CNCCCn1c2ccccc2c2c3c(c(-c4ccsc4)cc21)C(=O)NC3=O,3.06
14,Cc1cc(/N=C/c2ccc(F)cc2)n(-c2ccccc2)n1,> 100
15,CCOC(=O)/C=C(/C(=O)OCC)n1cnc2c(=O)[nH]c(NC(C)=O)nc21,> 100
16,O=C1NC(N/N=C\C(O)C(O)C(O)C(O)CO)=N/C1=C/c1ccc(Cl)cc1 (centres undefined),> 100
17,CCOC(=O)Cc1ccc(Nc2nc3ccccc3nc2C(=O)OCC)cc1,41
18,CC(C)[Si]1(C(C)C)OCC2OC3(CO)C(Oc4nc(=O)ccn43)C2O[Si](C(C)C)(C(C)C)O1 (centres undefined),32.7
19,CC(C)(C)[Si](C)(C)Oc1ccc(C2CNC(=O)C23CCC(=O)N3Cc2ccccc2)cc1 (centres undefined),29.5

# Test system: DU-145 prostate
# Assay: NCI anticancer screen, dose series, 48 h
row,Compound,TGI [µM]
1,O=C(N(O)c1ccccc1Cl)C(O)(c1ccccc1)c1ccccc1,> 100
2,CCOC(=O)c1nc2cc(F)c(N3CCOCC3)cc2[nH]c1=O,> 100
3,CCCC(=O)N1CCN(c2ccc3c(c2)OC(C)O3)CC1 (centres undefined),> 100
4,COC(=O)C1=C(O)c2ccc(Cl)cc2S(=O)(=O)N1C,> 100
5,CCOC(=O)[C@H](C)OC(=O)[C@@](C)(NC(=O)c1ccccc1C(=O)OC)[C@@H]1NC=C(C(=O)OC)CS1,> 100
6,CC1(C)OC2C(O)C(CO)OC2(C(F)F)O1 (centres undefined),> 100
7,COCOC1C=CCCCC2=CC(C)=C(CC1)O2 (centres undefined),> 100
8,Cn1c2ccccc2c(=O)c2cccc(C(=O)NC(CS)C(=O)O)c21 (centres undefined),> 100
9,COc1ccc(-c2cc3ccccc3oc2=O)cc1OC,> 100
10,CCC(=O)O[C@H]1CC[C@H]2[C@@H]3CCC4=C/C(=N/OC(=O)c5cccc6cc7ccccc7nc56)CC[C@]4(C)[C@H]3CC[C@]12C,> 100
11,CC(=O)OCC1OC(n2c(C)cc(C)c(C#N)c2=S)C(OC(C)=O)C(OC(C)=O)C1OC(C)=O (centres undefined),> 100
12,COC(=O)NC(C(F)(F)F)(C(F)(F)F)P1(=O)OCCCO1,> 100
13,CNCCCn1c2ccccc2c2c3c(c(-c4ccsc4)cc21)C(=O)NC3=O,1.89
14,Cc1cc(/N=C/c2ccc(F)cc2)n(-c2ccccc2)n1,> 100
15,CCOC(=O)/C=C(/C(=O)OCC)n1cnc2c(=O)[nH]c(NC(C)=O)nc21,> 100
16,Nc1ccn([C@H]2CO[C@@H](CO)[C@@H]2O)c(=O)n1,> 100
17,O=C1NC(N/N=C\C(O)C(O)C(O)C(O)CO)=N/C1=C/c1ccc(Cl)cc1 (centres undefined),> 100
18,CCOC(=O)Cc1ccc(Nc2nc3ccccc3nc2C(=O)OCC)cc1,> 100
19,CC(C)[Si]1(C(C)C)OCC2OC3(CO)C(Oc4nc(=O)ccn43)C2O[Si](C(C)C)(C(C)C)O1 (centres undefined),27.7
20,CC(C)(C)[Si](C)(C)Oc1ccc(C2CNC(=O)C23CCC(=O)N3Cc2ccccc2)cc1 (centres undefined),38.7

# Test system: ACHN renal
# Assay: NCI anticancer screen, dose series, 48 h
row,Compound,TGI [µM]
1,O=C(N(O)c1ccccc1Cl)C(O)(c1ccccc1)c1ccccc1,> 100
2,CCOC(=O)c1nc2cc(F)c(N3CCOCC3)cc2[nH]c1=O,> 100
3,CCCC(=O)N1CCN(c2ccc3c(c2)OC(C)O3)CC1 (centres undefined),> 100
4,COC(=O)C1=C(O)c2ccc(Cl)cc2S(=O)(=O)N1C,> 100
5,CCOC(=O)[C@H](C)OC(=O)[C@@](C)(NC(=O)c1ccccc1C(=O)OC)[C@@H]1NC=C(C(=O)OC)CS1,> 100
6,CC1(C)OC2C(O)C(CO)OC2(C(F)F)O1 (centres undefined),> 100
7,COCOC1C=CCCCC2=CC(C)=C(CC1)O2 (centres undefined),> 100
8,Cn1c2ccccc2c(=O)c2cccc(C(=O)NC(CS)C(=O)O)c21 (centres undefined),> 100
9,COc1ccc(-c2cc3ccccc3oc2=O)cc1OC,> 100
10,CCC(=O)O[C@H]1CC[C@H]2[C@@H]3CCC4=C/C(=N/OC(=O)c5cccc6cc7ccccc7nc56)CC[C@]4(C)[C@H]3CC[C@]12C,> 100
